Test results published in ChEMBL document CHEMBL1127776, “Stereospecific synthesis of a pentopyranosyl analogue of d4T monophosphate” (Bioorg Med Chem Lett, 1994).
Calls of active or inactive are those of the source.

Assays:
Type in all cases: functional, cell-based
Conditions in all cases: Homo sapiens
CCRF-CEM [1] = experiment: Compound was tested for toxicity to the CEM cell monolayers; No toxicity
CCRF-CEM [2] = experiment: Compound was tested for the inhibition of HIV-1 replication in CEM cell culture up to 100 ug/mL concentration; Not active
CCRF-CEM [3] = experiment: Compound was tested for the inhibition of HIV-2 replication in CEM cell culture up to 100 ug/mL concentration; Not active

Cc1cn(C2C=CC(OCP(=O)(O)O)CO2)c(=O)[nH]c1=O (stereo not drawn)
inactive: Toxicity (CCRF-CEM [1]) Not toxic | inhibition (CCRF-CEM [2]) | inhibition (CCRF-CEM [3])
